We go through 4 molecules from ChEMBL document CHEMBL1201862, “PubChem BioAssay data set” (2004).

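These data come from cells grown in 96-well plates and exposed to compound for 48 hours at five concentrations. GI50 = concentration required for 50% inhibition of growth.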 Active and inactive are the calls of the source. Rule as the data show it: active = GI50 up to about 1.1 µM and inactive = higher.

Test systems include A498; BT-549; DU-145; HCT-116; HOP-62; HOP-92; K562; MCF7; MDA-MB-435; MDA-N; MOLT-4; NCI-H226; RXF 393; SF-268; SK-MEL-5; SN12C; SNB-75; SR; SW-620.
Test in all cases: growth of human tumour cells (NCI), 48 h

For `Cc1ccc(NCCN(C)C)c2c(=O)c3cc(O)ccc3oc12`, the GI50 was 14.9 µM (inactive) with A498; 16.7 µM (inactive) in the assay with BT-549; 15.1 µM (inactive) in the assay on DU-145; 4.86 µM (inactive) in the assay with HCT-116; 11 µM (inactive) in the assay on HOP-62; 11.1 µM (inactive) in the assay with HOP-92. The GI50 in the assay on K562 was 4.09 µM (inactive); in the assay on MCF7 it was 5.38 µM (inactive); in the assay on MDA-MB-435 it was 12 µM (inactive); in the assay with MDA-N, 10.7 µM (inactive); in the assay with MOLT-4, 1.11 µM (active); in the assay with NCI-H226, 15.8 µM (inactive). The GI50 is 11.9 µM (inactive) with RXF 393; 5.35 µM (inactive) in the assay on SF-268; 11.6 µM (inactive) in the assay on SK-MEL-5; 7.59 µM (inactive) in the assay on SN12C; 4.79 µM (inactive) with SNB-75; 0.083 µM (active) in the assay on SR. The GI50 with SW-620 was 4.12 µM (inactive).

On to `Cc1ccc(S(=O)(=O)NC(=O)Nc2nc[nH]n2)cc1`, for which the GI50 with A498, with BT-549, in the assay with DU-145, with HCT-116, in the assay with HOP-62 and with HOP-92 was > 100 µM (inactive) throughout. Besides, the GI50 with K562, with MCF7, with MDA-MB-435, in the assay on MDA-N, in the assay with MOLT-4 and in the assay on NCI-H226 was > 100 µM (inactive) in each case. For the same molecule, the GI50 in the assay with RXF 393, in the assay with SF-268, in the assay on SK-MEL-5, in the assay on SN12C, in the assay with SNB-75 and in the assay with SR was > 100 µM (inactive) each time. In addition, the GI50 in the assay with SW-620 was > 100 µM (inactive).

With `Cc1ccc2cccc(-c3cccc4ccccc34)c2n1`, the GI50 is 20.4 µM (inactive) in the assay with A498; 30.3 µM (inactive) with BT-549; 36.8 µM (inactive) in the assay on DU-145; 17.8 µM (inactive) in the assay on HCT-116; 25.2 µM (inactive) in the assay on HOP-62; 12.6 µM (inactive) in the assay on HOP-92. Moreover, the GI50 is 4.66 µM (inactive) with K562; > 10 µM (inactive) with MCF7; 2.69 µM (inactive) with MDA-MB-435; 4.2 µM (inactive) in the assay on MDA-N; 13.2 µM (inactive) with MOLT-4; 20.5 µM (inactive) with NCI-H226. Also, the GI50 with RXF 393 is 13.6 µM (inactive); in the assay on SF-268, 25.5 µM (inactive); in the assay on SK-MEL-5, 16.1 µM (inactive); in the assay on SN12C, 25.6 µM (inactive); in the assay with SNB-75, 8.87 µM (inactive); in the assay with SR it was 12.6 µM (inactive). Moreover, in the assay with SW-620, the GI50 was 25.2 µM (inactive).

As to `OC1CC2CCC(C1)N2CCCN1c2ccccc2Sc2ccc(Cl)cc21` (stereo unspecified), the GI50 was 1.84 µM (inactive) with A498; 4.86 µM (inactive) in the assay on BT-549; 3.81 µM (inactive) in the assay on DU-145; 1.83 µM (inactive) in the assay on HCT-116; 4.73 µM (inactive) in the assay on HOP-62; 2.5 µM (inactive) in the assay on HOP-92. Further, the GI50 was 2.04 µM (inactive) in the assay with K562; 1.59 µM (inactive) in the assay on MCF7; 1.73 µM (inactive) with MDA-MB-435; 1.87 µM (inactive) in the assay with MDA-N; 2.29 µM (inactive) with MOLT-4; 5.94 µM (inactive) in the assay on NCI-H226. For the same molecule, the GI50 was 1.74 µM (inactive) in the assay with RXF 393; 2.37 µM (inactive) in the assay on SF-268; 1.73 µM (inactive) with SK-MEL-5; 3.73 µM (inactive) in the assay on SN12C; 2.21 µM (inactive) in the assay on SNB-75; 2.2 µM (inactive) in the assay on SR. In addition, the GI50 in the assay with SW-620 is 2.43 µM (inactive).
